This assay deals with L1210 leukemia ip in BDF1 mice, survival T/C. As to the kind of experiment: NCI In Vivo Anticancer Drug Screen. Data for tumor model L1210 Leukemia (intraperitoneal) in B6D2F1 (BDF1) mice. The note with it: endpoint: mean survival time, higher = longer survival. The method in brief: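 Antitumor effect is assessed in tumor-bearing animals. Survival in the compound arm is compared with a vehicle-dosed control arm and expressed as their quotient.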

Where [1] appears, read: dose: 100.0 mg/kg/injection, schedule: Q01DX009 (ip), vehicle: saline.
Where [2] appears, read: dose: 100.0 mg/kg/injection, schedule: Q04DX002 (ip), vehicle: saline.
Where [3] appears, read: dose: 100.0 mg/kg/injection, schedule: Q01DX009 (ip), vehicle: Klucel (hydroxypropylcellulose) (HPC).
The mark [4] stands for this setting: dose: 100.0 mg/kg/injection, schedule: Q04DX003 (ip), vehicle: Klucel (hydroxypropylcellulose) (HPC).
[5] abbreviates: dose: 200.0 mg/kg/injection, schedule: Q01DX009 (ip), vehicle: Klucel (hydroxypropylcellulose) (HPC).
Where [6] appears, read: dose: 200.0 mg/kg/injection, schedule: Q04DX003 (ip), vehicle: Klucel (hydroxypropylcellulose) (HPC).
The mark [7] stands for this setting: dose: 400.0 mg/kg/injection, schedule: Q01DX009 (ip), vehicle: Klucel (hydroxypropylcellulose) (HPC).
The mark [8] stands for this setting: dose: 400.0 mg/kg/injection, schedule: Q04DX003 (ip), vehicle: Klucel (hydroxypropylcellulose) (HPC).

“And” between values parts separate entries of the source, which are not always exact repeats. Equal values may be shown once. Inconclusive results and toxic doses are left out.

For the molecule `N#CS/C=C/C(N)=O`, the T/C runs as follows: (dose: 1.0 mg/kg/injection, schedule: Q01DX001 (ip), vehicle: saline) 101 % of control; (dose: 2.0 mg/kg/injection, schedule: Q01DX001 (ip), vehicle: saline) 99 % of control; (dose: 2.0 mg/kg/injection, schedule: Q01DX009 (ip), vehicle: saline) 103 % of control; (dose: 4.0 mg/kg/injection, schedule: Q01DX001 (ip), vehicle: saline) 95 % of control; (dose: 4.0 mg/kg/injection, schedule: Q01DX009 (ip), vehicle: saline) 103 % of control; (dose: 8.0 mg/kg/injection, schedule: Q01DX001 (ip), vehicle: saline) 94 % of control. The T/C (dose: 8.0 mg/kg/injection, schedule: Q01DX009 (ip), vehicle: saline) was 105 % of control.
Turning to `C=CCSCC(=O)Cl`, the T/C reads like this: (dose: 25.0 mg/kg/injection, schedule: Q01DX009 (ip), vehicle: saline) 102 % of control; (dose: 50.0 mg/kg/injection, schedule: Q01DX009 (ip), vehicle: saline) 100 % of control; under setting [1], 110 % of control; under setting [2], 95 % of control.
In the case of `O=C1OC2CC3CC2C1C3C(=O)N1CCCCC1` (configuration not stated), the T/C (dose: 100.0 mg/kg/injection, schedule: Q04DX003 (ip), vehicle: saline with Tween-80) was 115 % of control; the T/C (dose: 100.0 mg/kg/injection, schedule: Q04DX003 (ip), vehicle: saline) was 98 % of control; the T/C (dose: 200.0 mg/kg/injection, schedule: Q04DX003 (ip), vehicle: saline with Tween-80) is 100 % of control; the T/C (dose: 200.0 mg/kg/injection, schedule: Q04DX003 (ip), vehicle: saline) is 96 % of control; the T/C (dose: 400.0 mg/kg/injection, schedule: Q04DX003 (ip), vehicle: saline with Tween-80) was 100 % of control; the T/C (dose: 400.0 mg/kg/injection, schedule: Q04DX003 (ip), vehicle: saline) is 96 % of control.
For the molecule `COC(=O)[c-]1[c-][c-][c-][c-]1.COC(=O)[c-]1[c-][c-][c-][c-]1.[Fe]`, the T/C runs as follows: (dose: 12.5 mg/kg/injection, schedule: Q04DX003 (ip), vehicle: Klucel (hydroxypropylcellulose) (HPC)) 94 % of control; (dose: 25.0 mg/kg/injection, schedule: Q04DX003 (ip), vehicle: Klucel (hydroxypropylcellulose) (HPC)) 90 % of control; (dose: 50.0 mg/kg/injection, schedule: Q04DX003 (ip), vehicle: Klucel (hydroxypropylcellulose) (HPC)) 90 % of control; (dose: 75.0 mg/kg/injection, schedule: Q01DX009 (ip), vehicle: Klucel (hydroxypropylcellulose) (HPC)) 103 % of control; (dose: 115.0 mg/kg/injection, schedule: Q01DX009 (ip), vehicle: Klucel (hydroxypropylcellulose) (HPC)) 93 % of control.
In the case of `O=CNC(c1ccccc1)(c1ccccc1)c1ccccc1`, the T/C runs as follows: under setting [3], 99 % of control; under setting [4], 102 % of control; under setting [5], 91 % of control; under setting [6], 94 % of control; under setting [7], 91 % of control; under setting [8], 102 % of control.
`OCCN(Cc1cccnc1)Cc1ccccn1`: the T/C (dose: 9.38 mg/kg/injection, schedule: Q01DX001 (ip), vehicle: saline) is 94 % of control and the T/C (dose: 18.75 mg/kg/injection, schedule: Q01DX001 (ip), vehicle: saline) is 100 % of control.
Turning to `COc1ccc(C2OC23CCCc2ccccc2C3=O)cc1` (configuration not stated), the T/C runs as follows: under setting [4], 95 % of control; under setting [6], 97 % of control; under setting [8], 89 % of control.
With `O=C(CCCC(=O)N/N=C/c1cccc2ccccc12)N/N=C/c1cccc2ccccc12`, the T/C (dose: 50.0 mg/kg/injection, schedule: Q01DX001 (ip), vehicle: other) is 93 % of control; the T/C (dose: 100.0 mg/kg/injection, schedule: Q01DX001 (ip), vehicle: other) is 91 % of control; the T/C (dose: 200.0 mg/kg/injection, schedule: Q01DX001 (ip), vehicle: other) was 91 % of control; the T/C (dose: 400.0 mg/kg/injection, schedule: Q01DX001 (ip), vehicle: other) is 87 % of control.
As to `CC(=O)Nc1ccc2c(c1)Cc1cc(Cl)ccc1-2`, the T/C is 105 % of control (dose: 50.0 mg/kg/injection, schedule: Q01DX001 (ip), vehicle: saline); 100 % of control (dose: 100.0 mg/kg/injection, schedule: Q01DX001 (ip), vehicle: saline); 103 % of control (dose: 200.0 mg/kg/injection, schedule: Q01DX001 (ip), vehicle: saline); 105 % of control (dose: 400.0 mg/kg/injection, schedule: Q01DX001 (ip), vehicle: saline).
As to `Cc1c(CNc2ccc(Cl)c(C(=O)NC(CC(=O)O)C(=O)O)c2)ccc2nc(N)nc(N)c12` (configuration not stated), the T/C is 110 % of control (dose: 1.5 mg/kg/injection, schedule: Q01DX009 (ip), vehicle: Klucel (hydroxypropylcellulose) (HPC)); 115 % of control (dose: 3.0 mg/kg/injection, schedule: Q01DX009 (ip), vehicle: Klucel (hydroxypropylcellulose) (HPC)); 120 % of control (dose: 3.13 mg/kg/injection, schedule: Q01DX009 (ip), vehicle: Klucel (hydroxypropylcellulose) (HPC)); 110 % of control and 92 % of control (dose: 6.0 mg/kg/injection, schedule: Q01DX009 (ip), vehicle: Klucel (hydroxypropylcellulose) (HPC)); 160 % of control (dose: 12.5 mg/kg/injection, schedule: Q01DX009 (ip), vehicle: Klucel (hydroxypropylcellulose) (HPC)); 168 % of control (dose: 50.0 mg/kg/injection, schedule: Q01DX009 (ip), vehicle: Klucel (hydroxypropylcellulose) (HPC)). Moreover, the T/C by setting is: under setting [3], 97 % of control and 100 % of control; under setting [1], 162 % of control; (dose: 267.0 mg/kg/injection, schedule: Q01DX001 (ip), vehicle: saline) 122 % of control.
As for `COC(=O)C1=C(C(=O)OC)C2(C)C=CC1O2` (configuration not stated), the T/C is, setting by setting: (dose: 3.12 mg/kg/injection, schedule: Q01DX009 (ip), vehicle: saline with Tween-80) 98 % of control; (dose: 6.25 mg/kg/injection, schedule: Q01DX009 (ip), vehicle: saline with Tween-80) 93 % of control; (dose: 12.5 mg/kg/injection, schedule: Q01DX009 (ip), vehicle: saline with Tween-80) 98 % of control and 105 % of control; (dose: 25.0 mg/kg/injection, schedule: Q01DX009 (ip), vehicle: saline with Tween-80) 106 % of control.
Regarding `CC(=O)Nc1ccc(S(=O)(=O)Nc2ccc(F)cc2)cc1`, the T/C by setting is: under setting [3], 96 % of control; under setting [5], 98 % of control; under setting [7], 102 % of control.
For the molecule `C#CCOc1ccccc1O`, the T/C (dose: 100.0 mg/kg/injection, schedule: Q01DX009 (ip), vehicle: acetone) is 94 % of control and 91 % of control; the T/C (dose: 200.0 mg/kg/injection, schedule: Q01DX009 (ip), vehicle: acetone) is 94 % of control; the T/C (dose: 400.0 mg/kg/injection, schedule: Q01DX009 (ip), vehicle: acetone) is 100 % of control and 92 % of control.
On to `CC(=O)[C@@]12OC(C)(C)O[C@@H]1C[C@H]1[C@@H]3C[C@H](C)C4=CC(=O)CC[C@]4(C)[C@H]3CC[C@@]12C`, for which the T/C was 103 % of control (dose: 100.0 mg/kg/injection, schedule: Q01DX001 (ip), vehicle: steriod suspending solution); 100 % of control (dose: 100.0 mg/kg/injection, schedule: Q04DX003 (ip), vehicle: steriod suspending solution); 98 % of control (dose: 200.0 mg/kg/injection, schedule: Q01DX001 (ip), vehicle: steriod suspending solution); 98 % of control (dose: 200.0 mg/kg/injection, schedule: Q04DX003 (ip), vehicle: steriod suspending solution); 97 % of control (dose: 400.0 mg/kg/injection, schedule: Q01DX001 (ip), vehicle: steriod suspending solution); 97 % of control (dose: 400.0 mg/kg/injection, schedule: Q04DX003 (ip), vehicle: steriod suspending solution).
Turning to `CC(C)CC(=O)NC(C)C(=O)NC(Cc1ccccc1)C(=O)CCl` (configuration not stated), the T/C reads like this: (dose: 12.0 mg/kg/injection, schedule: Q04DX002 (ip), vehicle: Klucel (hydroxypropylcellulose) (HPC)) 109 % of control; (dose: 25.0 mg/kg/injection, schedule: Q04DX002 (ip), vehicle: Klucel (hydroxypropylcellulose) (HPC)) 98 % of control; (dose: 50.0 mg/kg/injection, schedule: Q04DX002 (ip), vehicle: Klucel (hydroxypropylcellulose) (HPC)) 106 % of control.
`COc1ccc(OC(C)OCCOCCO)cc1` (configuration not stated): the T/C under setting [2] was 107 % of control; the T/C (dose: 200.0 mg/kg/injection, schedule: Q04DX002 (ip), vehicle: saline) is 93 % of control; the T/C (dose: 400.0 mg/kg/injection, schedule: Q04DX002 (ip), vehicle: saline) was 107 % of control.

Source of the values: PubChem BioAssay AID248 (DTP/NCI, 2004).
